Data set [1] deals with U87 spheroids. Put plainly: WST-1 metabolic activity of U87 spheroids under drug or DMSO treatment. The data set is classed as cell-based. A general note: Tetrazolium assays rely on reduction of a dye to a coloured formazan, in cell work by metabolically active cells.
Description: (§1) The spheroids were subjected to drug testing at varying concentrations, with DMSO serving as a solvent control. This experimental approach aimed to dissect the impact of both DMSO and drug compounds on the metabolic activity and viability of U87 spheroids.
(§2) Control tests were first conducted with DMSO at concentrations of 1%, 2.5%, 5%, 10%, and 20% (v/v) to assess its cytotoxic effects independently of drug action. The metabolic activity of the spheroids was monitored at 0, 6, 12, 24, and 48 hours, followed by a live/dead assay at 48 hours to assess cell viability.
(§3) Spheroid metabolic activity was measured at 6, 12, 24, and 48 hours using the WST-1 assay, and viability was assessed at 48 hours via the live/dead assay.
In data set [2] the test system is U87 spheroids. Description: live/dead viability assay of U87 spheroids at 48 hours.
Description: as §1, §2, §3
A further data set in a line: in vitro. The conditions noted are these: human.

Consider three molecules from US20250127159A1, “PAPER-BASED CRYOPRESERVATION OF MAMMALIAN CELL AGGREGATES” (New York University in Abu Dhabi Corporation, priority 2023, published 2025).

Description for in vitro: as §1, §2, §3

As to `N.N.[Cl][Pt][Cl]` [Cisplatin], in the data set with U87 spheroids [1] (cryopreserved spheroids, 10 μM and above), the “response at higher doses” value is recorded as “delayed response”. Besides, the metabolic activity result with U87 spheroids [1] (cryopreserved spheroids, doses as low as 0.1 μM) is “metabolic activity decreasing”; in the data set with U87 spheroids [1] (normally grown spheroids, doses ≥10 μM), “significantly reduced metabolic activity”.

For the molecule `C[S+](C)[O-]` [DMSO, dimethyl sulfoxide], the cell viability entry in the data set on U87 spheroids [2] (10% and 20% DMSO, particularly in cryopreserved samples) is “viability decreased”. In “in vitro”, the viability at 48 h, 1 % (v/v) is over 99%; the viability at 48 h, 5 % (v/v) was over 99%; the viability at 48 h, 10 % (v/v) was under 50%; the viability at 48 h, 20 % (v/v) came to 5%. For the same molecule, the metabolic activity entry with U87 spheroids [1] (cryopreserved spheroids, 10% and 20% DMSO) is listed as “declining sharply”. The metabolic activity entry in the data set with U87 spheroids [1] (normally grown spheroids, 1% DMSO (v/v), over 48 hours) is listed as “linear increase in metabolic activity”. Besides, the metabolic activity result in the data set on U87 spheroids [1] (normally grown spheroids, higher concentrations (5%, 10%, 20% DMSO)) is “temporary reductions in metabolic activity at the 6-hour mark, followed by partial recovery”.

With `Cn1nnc2c(C(N)=O)ncn2c1=O` [TMZ], the viability result with U87 spheroids [2] (400 μM) and in the data set on U87 spheroids [2] (800 μM) was “below 30%” in each case. For the same molecule, the “metabolic activity and viability compared to normally grown spheroids” value in the data set with U87 spheroids [1] (cryopreserved spheroids, comparable doses) was “slightly higher metabolic activity and viability”. In the data set with U87 spheroids [1] (cryopreserved spheroids, more substantial reductions at 400 μM and 800 μM), the response timing entry was “slightly delayed responses”. The metabolic activity entry in the data set with U87 spheroids [1] (doses ≥100 μM, both normal and cryopreserved spheroids) was “metabolic activity was suppressed”.

A word on the viability: it is a read-out of living cells in per cent, often relative to untreated cells. A low value points to more harm to the cells.
